≈ marks a conversion by molar mass, not a printed value.
Tests used:
[1] = tested on: IIIB strain of HIV-1 in CEM-SS cells; experiment: Measurement of anti-HIV activity in vitro (XTT method, control of cellular denaturalization due to HIV infection); assay type: cell-based
Experimental: An increase in the synergistic anti-virus activity in the combined use of KNI-272 and Saquinavir is shown by a specific experimental example. The anti-virus activity was evaluated as the capability of controlling generation of infectious virus particles in vitro. The effect of cell extinction to HIV infection was calculated when Saquinavir methanesulfonate and KNI-272 respectively or both were added to a culture liquid, to determine the concentration region where a synergistic increase in the anti-virus activity in the combined use of the two compounds is conspicuous. Measurement of the anti-virus activity in vitro was carried out according to the following procedure. In the description hereinafter the concentration of methanesulfonate is indicated as the concentration converted into Saquinavir. The concentration of KNI-272 is indicated as the concentration of the compound itself.
A IIIB strain of HIV-1 was used as an HIV wild strain and CEM-SS cells were used as infected cells in the above-mentioned culture. The amount of HIV sufficient to kill all CEM-SS cells 6 days after inoculation (multiplicy of infection, MOI of 0.01-0.05) was determined and this amount of HIV was added. A 96 well micro-titre plate was used to inoculate 5×10^3 CEM-SS cells per well in this case. At the time of inoculation of cells, a test compound was added to the culture medium to a prescribed concentration. Three specimens were used for each test level. The following controls were used (1) as calorimetric controls: a sample with only a test compound added to the culture medium, (2) as a cytotoxic control for a test compound: a sample with only cells and the test compound added to the culture medium, (3) as a virus control: a sample with the cells inoculated with only a virus, and (4) as a cell survival control, a sample consisting only of cells. In addition, AZT and DDC which are compounds with a known anti-HIV activity were used as positive controls. After the cells were added, they were inoculated with the infecting virus, followed by incubation at 37° C.for 6 days. Cellular denaturalization due to HIV infection was colorimetrically measured for each well. Employing the colorimetry, was the metabolism from XTT Tetrazolium to XTT Formazan was evaluated. This colorimetry is called the XTT method (see Weislow et al., Journal of the National Cancer Institute 81, 577-586 (1989)). After the above-mentioned incubation, a prescribed amount of XTT was added to each well and incubation was continued for a further four hours at 37° C. to measure the amount of XTT Formazan produced by metabolism by means of calorimetric quantitation.
The anti-HIV activity for each experimental level was calculated by comparing the number of undenatured cells measured by the above-mentioned assay with the corresponding number of cells in the four control groups. Specifically, the proportion of cellular denaturalization due to HIV infection controlled by the addition of the test compound was calculated. A systematic deviation between the several experiments was corrected based on the results of AZT and ddC used as positive controls.
In this example, 0 ng/ml and several concentrations in the range of 0.625-10.0 ng/ml of Saquinavir methanesulfonate and 0 ng/ml and several concentrations in the range of 0.313-80.0 ng/ml of KNI-272 were used. The results (anti-HIV activities) obtained under these conditions using either one of these medicaments or both medicaments in combination are shown in Table 1.
With regard to this concentration region wherein no synergistic increase can be seemingly identified, a similar evaluation was carried out adding a larger amount of HIV to qualitatively evaluate the presence or absence of a synergistic effect. […] This affords qualitative results rather than quantitative results.
An increase in the synergistic anti-virus activity in the combined use of KNI-272 and Ritonavir is shown by a specific experimental example. […]

[2] = Dynamics in vivo (concentration in plasma over time) of KNI-272 and Ritonavir in dogs; conditions: for MRT / AUC / Cmax / Tmax: dog, plasma, 15 mg/kg
[3] = tested on: HIV Wild strain (IIIB); experiment: Anti-virus activity IC50 against wild strain; assay type: cell-based; conditions: Human immunodeficiency virus 1, IIIB, read-out: Anti-virus activity IC50
[4] = tested on: Indinavir resistant strain; experiment: Anti-virus activity IC50 against Indinavir resistant strain; assay type: cell-based, HIV; conditions: Human immunodeficiency virus 1, read-out: Anti-virus activity IC50
Source text: (§1) A drug resistant strain virus is a resistance strains induced in a cell culture system in vitro while maintaining infection in the presence of each medicament through generations.

[5] = tested on: KNI-272 resistant strain; experiment: microbe, parasite or virus in culture; assay type: cell-based, HIV; conditions: Human immunodeficiency virus 1, read-out: Anti-virus activity IC50
Source text: as §1

[6] = tested on: Ritonavir resistant strain; experiment: Anti-virus activity IC50 against Ritonavir resistant strain; assay type: cell-based, HIV; conditions: Human immunodeficiency virus 1, read-out: Anti-virus activity IC50
[7] = po, KNI-272 15 mg/kg p.o., administered after Ritonavir, dogs
[8] = po, KNI-272 15 mg/kg p.o., administered before Ritonavir, dogs

Compound: CSC[C@H](NC(=O)COc1cccc2cnccc12)C(=O)N[C@@H](Cc1ccccc1)[C@H](O)C(=O)N1CSC[C@H]1C(=O)NC(C)(C)C [KNI-272, (R)-N-1,1-dimethylethyl-3-[(2S,3S)-2-hydroxy-3-[(R)-2-(5-isoquinolyloxyacetyl)amino-3-methylthiopropanoyl]amino-4-phenylbutanoyl]-1,3-thiazolidine-4-carboxyamide]
- Anti-HIV activity (%) ([1]; KNI-272 0.313 ng/ml alone (Table 1)): 4.8%
- Anti-HIV activity (%) ([1]; KNI-272 0.313 ng/ml alone (Table 4)): 5.6%
- Anti-HIV activity (%) ([1]; KNI-272 0.625 ng/ml alone (Table 1)): 0.0%
- Anti-HIV activity (%) ([1]; KNI-272 0.625 ng/ml alone (Table 4)): 2.1%
- Anti-HIV activity (%) ([1]; KNI-272 1.25 ng/ml alone (Table 1)): 1.2%
- Anti-HIV activity (%) ([1]; KNI-272 1.25 ng/ml alone (Table 4)): 3.8%
- Anti-HIV activity (%) ([1]; KNI-272 2.5 ng/ml alone (Table 1)): 11.0%
- Anti-HIV activity (%) ([1]; KNI-272 2.5 ng/ml alone (Table 4)): 2.2%
- Anti-HIV activity (%) ([1]; KNI-272 5.0 ng/ml alone (Table 1)): 8.5%
- Anti-HIV activity (%) ([1]; KNI-272 5.0 ng/ml alone (Table 4)): 0.0%
- Anti-HIV activity (%) ([1]; KNI-272 10.0 ng/ml alone (Table 1)): 13.1%
- Anti-HIV activity (%) ([1]; KNI-272 10.0 ng/ml alone (Table 4)): 2.5%
- Anti-HIV activity (%) ([1]; KNI-272 20.0 ng/ml alone (Table 1)): 15.7%
- Anti-HIV activity (%) ([1]; KNI-272 20.0 ng/ml alone (Table 4)): 12.8%
- anti-HIV activity as fraction of that of combined use of 10.0 ng/ml Saquinavir methanesulfonate and 20.0 ng/ml KNI-272 ([1]; KNI-272 30.0 ng/ml alone): ⅓
- Anti-HIV activity (%) ([1]; KNI-272 40.0 ng/ml alone (Table 1)): 27.6%
- Anti-HIV activity (%) ([1]; KNI-272 40.0 ng/ml alone (Table 4)): 42.8%
- anti-HIV activity as fraction of that of combined use of 20.0 ng/ml Ritonavir and 40.0 ng/ml KNI-272 ([1]; KNI-272 60.0 ng/ml alone): about ¾
- Anti-HIV activity (%) ([1]; KNI-272 80.0 ng/ml alone (Table 1)): 65.7%
- Anti-HIV activity (%) ([1]; KNI-272 80.0 ng/ml alone (Table 4)): 100.0%
- Cltot ([2]; KNI-272 15 mg/kg i.v., dogs): 1.49 h⁻¹ kg⁻¹
- Vd(ss) ([2]; KNI-272 15 mg/kg i.v., dogs): 0.70 kg⁻¹
- F ([2]; KNI-272 15 mg/kg p.o., administered after Ritonavir, dogs): 55.2%
- F ([2]; KNI-272 15 mg/kg p.o., administered before Ritonavir, dogs): 4.6%
- MRT ([2]; iv, KNI-272 15 mg/kg i.v., dogs): 28.2 min
- AUC ([2]; iv, KNI-272 15 mg/kg i.v., independent administration, dogs): 10100 ng·h/mL
- AUC ([2]; po, KNI-272 15 mg/kg p.o., administered after Ritonavir (100 mg/body p.o., 30 min interval), dogs): 5570 ng·h/mL
- Cmax [2, 7]: 2800 ng/mL
- MRT [2, 7]: 96.8 min
- Tmax [2, 7]: 30 min
- AUC ([2]; po, KNI-272 15 mg/kg p.o., administered before Ritonavir (100 mg/body p.o., 30 min interval), dogs): 467 ng·h/mL
- Cmax [2, 8]: 1000 ng/mL
- MRT [2, 8]: 30.8 min
- Tmax [2, 8]: 5 min
- MRT value (index of the half-life of concentration in blood) ([2]; medicaments individually administered): 30 min
- IC50 [3]: 0.007 µg/mL (≈ 0.0105 µM)
- IC50 [4]: 0.01 µg/mL (≈ 0.015 µM)
- IC50 [5]: 0.32 µg/mL (≈ 0.479 µM)
- IC50 [6]: 0.304 µg/mL (≈ 0.455 µM)
